Test results published in BindingDB's records for doi:10.1016/0960-894X(95)00370-9 (1995).
pIC50: −log10 of the molar value.

Target: Type-1 angiotensin II receptor A (Rattus norvegicus) (UniProt P25095)
Assay: Tested for binding affinity against angiotensin II receptor in rat adrenal cortex

Chain of Type-1 angiotensin II receptor A (Rattus norvegicus) (P25095 whole entry, looked up): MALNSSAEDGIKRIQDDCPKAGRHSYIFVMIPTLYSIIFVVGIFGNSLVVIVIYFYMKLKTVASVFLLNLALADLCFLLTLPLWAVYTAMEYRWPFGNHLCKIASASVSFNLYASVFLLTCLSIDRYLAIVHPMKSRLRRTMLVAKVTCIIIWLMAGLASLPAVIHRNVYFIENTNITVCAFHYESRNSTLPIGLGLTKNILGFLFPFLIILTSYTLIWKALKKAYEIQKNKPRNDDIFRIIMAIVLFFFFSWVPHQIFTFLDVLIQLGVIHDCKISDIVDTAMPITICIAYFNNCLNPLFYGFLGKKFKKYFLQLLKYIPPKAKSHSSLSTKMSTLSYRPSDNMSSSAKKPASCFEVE

pIC50	Compound
8.36	CCCc1cc(=O)n(CCN2C(=O)c3ccccc3C2=O)c(=O)n1Cc1ccc(-c2ccccc2-c2nnn[nH]2)cc1 [2-(2-{2,6-Dioxo-4-propyl-3-[2'-(1H-tetrazol-5-yl)-biphenyl-4-ylmethyl]-3,6-dihydro-2H-pyrimidin-1-yl}-ethyl)-isoindole-1,3-dione]
7.85	CCCc1cc(=O)n(CCNC(=O)C(c2ccccc2)c2ccccc2)c(=O)n1Cc1ccc(-c2ccccc2-c2nnn[nH]2)cc1 [N-(2-{2,6-Dioxo-4-propyl-3-[2'-(1H-tetrazol-5-yl)-biphenyl-4-ylmethyl]-3,6-dihydro-2H-pyrimidin-1-yl}-ethyl)-2,2-diphenyl-acetamide]
